According to patent US20220387451A1, “AMORPHOUS PHARMACEUTICAL COMPOSITIONS OF ABIRATERONE ACETATE” (SUVEN LIFE SCIENCES LIMITED, priority 2019, published 2022):

Key:
[1] = Excretion after an oral dose of abiraterone acetate (literature); assay type: in vivo; conditions: feces plus urine
From the text: Due to highly lipophilic nature and poor aqueous solubility in the gastrointestinal tract, the oral bioavailability of abiraterone acetate is limited. After an oral dose of abiraterone acetate, 88% of the administered drug gets excreted unchanged through feces, and another 5% is excreted in the urine (Ryan C J et al., J ClinOncol. 2010; 28(9):1481-1488). Therefore, >90% of the administered drug gets excreted and is not used for its intended treatment. […] As a result, Zytiga® must be taken on an empty stomach with water at least […] a meal. There is a need for developing new pharmaceutical compositions for abiraterone acetate that improve bioavailability in the fasted state to in turn reduce the food effect and overall variability in absorption.

[2] = after an oral dose; cited from earlier work

administered drug excreted [1]: > 90%
SMILES: CC(=O)O[C@H]1CC[C@@]2(C)C(=CC[C@@H]3[C@@H]2CC[C@]2(C)C(c4cccnc4)=CC[C@@H]32)C1 [Abiraterone acetate]
administered drug excreted in the urine [2]: 5%
administered drug excreted unchanged through feces [2]: 88%
